Measurements published in paper PMC7321065, “Discovery of New Schiff Bases Tethered Pyrazole Moiety: Design, Synthesis, Biological Evaluation, and Molecular Docking Study as Dual Targeting DHFR/DNA Gyrase Inhibitors with Immunomodulatory Activity” (Molecules, 2020).
≈ marks a conversion by molar mass, not a printed value. Like-named read-outs stand apart in the source and are kept apart here.

What was measured:
[1] = system: Candida albicans; experiment: Inhibition zone, agar plate diffusion; assay type: cell-based; conditions: read-out: Inhibition zone (IZ)
Experimental: (§1) Antimicrobial activities of the newly formed Schiff bases (6a–d, 7a–d, 8a–d, and 9a–d) and reference drugs were evaluated against three Gram-positive, three Gram-negative, and two fungi strain at Al-Azhar University, Cairo, Egypt. The inhibition zones (IZ, in mm ± standard deviation) and the minimal inhibitory concentration (MIC) (μg/mL) were determined by the conventional paper disk diffusion method.
(§2) In Vitro Antimicrobial Activities
(§3) The antimicrobial activities inhibition zone (IZ, mm±standard deviation) of pyrazole Schiff bases ( 6a-d , 7a-d, 8a-d and 9a-d ) was measurement according to the agar plate diffusion method. Briefly, 100 µl of the […]
(§4) […] of each sample (at 0.5 mg/mL) was added to each well (10 mm diameter holes cut in the agar gel). The plates were incubated for 24 h at 37 °C (for bacteria and yeast) and for 72 h at 27 °C (for filamentous fungi), each test was repeated three times. After incubation, the microorganism's growth was observed. […]
(§5) drugs while Amphotericin B was used as standard antifungal drug. The resulting inhibition zone diameters were measured in millimeters and used as criterion for the antimicrobial activity. Solvent controls (DMSO) were included in every experiment as negative controls. DMSO was used for dissolving […]
(§6) the tested microorganisms. […]
(§7) Bacteria were grown on nutrient agar medium, while fungi and yeast were grown on Sabouraud agar medium. […]

[2] = system: Fusarium oxysporum; experiment: Inhibition zone, agar plate diffusion; assay type: cell-based; conditions: read-out: Inhibition zone (IZ)
Experimental: as §1, §2, §3, §4, §5, §6, §7

[3] = system: Salmonella typhi; experiment: Inhibition zone, agar plate diffusion; assay type: cell-based; conditions: Salmonella enterica, read-out: Inhibition zone (IZ)
Experimental: as §1, §2, §3, §4, §5, §6, §7

[4] = system: Staphylococcus aureus; experiment: Inhibition zone, agar plate diffusion; assay type: cell-based; conditions: read-out: Inhibition zone (IZ)
Experimental: as §1, §2, §3, §4, §5, §6, §7

[5] = system: Bacillus subtilis; experiment: Inhibition zone, agar plate diffusion; assay type: cell-based; conditions: read-out: Inhibition zone (IZ)
Experimental: as §1, §2, §3, §4, §5, §6

[6] = system: Enterococcus faecalis; experiment: Inhibition zone, agar plate diffusion; assay type: cell-based; conditions: read-out: Inhibition zone (IZ)
Experimental: as §1, §2, §3, §4, §5, §6

[7] = system: Pseudomonas aeruginosa; experiment: Inhibition zone, agar plate diffusion; assay type: cell-based; conditions: read-out: Inhibition zone (IZ)
Experimental: as §1, §2, §3, §4, §5, §6

[8] = system: Escherichia coli; experiment: Inhibition zone, agar plate diffusion; assay type: cell-based; conditions: read-out: Inhibition zone (IZ)
Experimental: as §1, §2, §3, §4, §5, §6

[9] = system: Candida albicans; experiment: MIC/MFC, paper disk diffusion; assay type: cell-based; conditions: Candida albicans, C. albicans
Experimental: as §1
(§8) In Vitro Antimicrobial Activities […]
(§9) DMSO was used for dissolving […]
(§10) the tested microorganisms.
(§11) The minimum inhibitory concentration (MIC), the minimum bactericidal concentration (MBC, µg/ml) and […]
(§12) and 9b) were determined by the conventional technique termed paper disk diffusion, by applying paper […]
(§13) Bacteria were grown on nutrient agar medium, while fungi and yeast were grown on Sabouraud agar medium. The purified streptomycin was dissolved in […]
(§14) inoculated with test organism. Growth inhibition was examined after 24 hr. from incubation at 37 °C for bacteria and after 72 hr. incubation at 27 °C for fungi and yeast. Each test was repeated three times. MIC was expressed as the lowest concentration inhibiting test organism’s growth. […]

[10] = system: Fusarium oxysporum; experiment: MIC/MFC, paper disk diffusion; assay type: cell-based; conditions: Fusarium oxysporum, F. oxysporum
Experimental: as §1, §8, §9, §10, §11, §12, §13, §14

[11] = system: mammary gland breast cancer cell line (MCF-7); experiment: Antiproliferative activity, MTT assay; assay type: cell-based, human; conditions: Homo sapiens, MCF7; MTT, 48 h; read-out: IC50 MCF-7
Experimental: (§15) 3-[4, 5-Dimethyl-2-thiazolyl)-2, 5-diphenyl-2 H-tetrazolium bromide (MTT) protocol is based on the cleavage of the tetrazolium salt by mitochondrial dehydrogenases in viable cells. Cells were dispensed in a 96 well sterile microplate (5 x 10^4 cells/well), and incubated at 37 °C with series of different concentrations, in DMSO, of each tested compound or Doxorubicin ® (positive control) for 48 h in a serum free medium prior to the MTT assay. After incubation, media were carefully removed, 40 µL of MTT (2.5 mg/mL) were added to each well and then incubated for an additional 4 h. The purple formazan dye crystals were solubilized by the addition of 200 µL of DMSO. The absorbance was measured at 590 nm using a SpectraMax® Paradigm® Multi-Mode microplate reader. The relative cell viability was expressed as the mean percentage of viable cells compared to the untreated control cells.
(§16) All experiments were conducted in triplicate and repeated in three different days. All the values were represented as mean ± SD. IC 50s were determined by probit analysis using SPSS software program (SPSS

[12] = system: hepatocellular carcinoma cell line (HepG2); experiment: Antiproliferative activity, MTT assay; assay type: cell-based, human; conditions: Homo sapiens, HepG2; MTT, 48 h; read-out: IC50 HepG-2
Experimental: as §15, §16

[13] = system: Bacillus subtilis; experiment: MIC/MBC, paper disk diffusion; assay type: cell-based; conditions: Bacillus subtilis, B. subtilis; read-out: MBC
Experimental: as §1, §8, §9, §10, §11, §12, §13, §14

[14] = system: Salmonella typhi; experiment: MIC/MBC, paper disk diffusion; assay type: cell-based; conditions: Salmonella enterica, TYPHI
Experimental: as §1, §8, §9, §10, §11, §12, §13, §14

[15] = system: Staphylococcus aureus; experiment: MIC/MBC, paper disk diffusion; assay type: cell-based; conditions: Staphylococcus aureus, S. aureus
Experimental: as §1, §8, §9, §10, §11, §12, §13, §14

[16] = system: Enterococcus faecalis; experiment: MIC/MBC, paper disk diffusion; assay type: cell-based; conditions: E. faecalis
Experimental: as §1, §8, §9, §10, §11, §12, §13, §14

[17] = system: Pseudomonas aeruginosa; experiment: MIC/MBC, paper disk diffusion; assay type: cell-based; conditions: Pseudomonas aeruginosa, P. aeruginosa
Experimental: as §1, §8, §9, §10, §11, §12, §13, §14

[18] = system: Escherichia coli; experiment: MIC/MBC, paper disk diffusion; assay type: cell-based; conditions: Escherichia coli, E. coli
Experimental: as §1, §8, §9, §10, §11, §12, §13, §14

[19] = St, mm ± standard deviation, sample at 0.5 mg/mL
[20] = Ca, mm ± standard deviation, sample at 0.5 mg/mL
[21] = Fo, mm ± standard deviation, sample at 0.5 mg/mL
[22] = Sa, mm ± standard deviation, sample at 0.5 mg/mL
[23] = Bs, mm ± standard deviation, sample at 0.5 mg/mL
[24] = Ef, mm ± standard deviation, sample at 0.5 mg/mL
[25] = Pa, mm ± standard deviation, sample at 0.5 mg/mL
[26] = Ec, mm ± standard deviation, sample at 0.5 mg/mL

| SMILES | zone of inhibition at 500 µg/mL [1] [mm] | zone of inhibition at 500 µg/mL [2] [mm] | zone of inhibition at 500 µg/mL [3, 19] [mm] | zone of inhibition at 500 µg/mL [4] [mm] | zone of inhibition at 500 µg/mL [5] [mm] | zone of inhibition at 500 µg/mL [6] [mm] | zone of inhibition at 500 µg/mL [7] [mm] | zone of inhibition at 500 µg/mL [8] [mm] | further results |
| --- | --- | --- | --- | --- | --- | --- | --- | --- | --- |
| COc1ccc(Nc2n[nH]c(N=Cc3c(C)n(C)n(-c4ccccc4)c3=O)c2C(=O)Nc2ccc(C)cc2)cc1 [6c, 5-((1,5-Dimethyl-3-oxo-2-phenyl-2,3-dihydro-1H-pyrazol-4-yl)methyleneamino)-3-(p-methoxyphenylamino)-N-p-tolyl-1H-pyrazole-4-carboxamide] | 17 ± 0.21 | 9 ± 0.35 | 15 ± 0.36 | 23 ± 0.29 | 20 ± 0.11 | 21 ± 0.54 | < 8 | 22 ± 0.43 | – |
| COc1ccc(Nc2n[nH]c(N=Cc3c(C)n(C)n(-c4ccccc4)c3=O)c2C(=O)Nc2ccc(Cl)cc2)cc1 [6d, N-(4-Chlorophenyl)-5-((1,5-dimethyl-3-oxo-2-phenyl-2,3-dihydro-1H-pyrazol-4-yl)methyleneamino)-3-(p-methoxyphenylamino)-1H-pyrazole-4-carboxamide] | 13 ± 0.2 | < 8 | < 8 | < 8 | 13 ± 0.41 | 14 ± 0.47 | 12 ± 0.63 | 19 ± 0.33 | – |
| COc1ccc(Nc2n[nH]c(N=Cc3c(C)nn(-c4ccccc4)c3Cl)c2C(=O)Nc2ccc(Cl)cc2)cc1 [7d, 5-((5-Chloro-3-methyl-1-phenyl-1H-pyrazol-4-yl)methyleneamino)-N-(p-chlorophenyl)-3-(p-methoxyphenylamino)-1H-pyrazole-4-carboxamide] | 20 ± 0.5 | 15 ± 0.14 | 17 ± 0.12 | 24 ± 0.33 | 23 ± 0.22 | 22 ± 0.35 | 17 ± 0.74 | 27 ± 0.3 | – |
| COc1ccc(Nc2n[nH]c(N=Cc3ccc(N4CCCCC4)cc3)c2C(=O)Nc2ccccc2)cc1 [8b, 3-(p-Methoxyphenylamino)-N-phenyl-5-(4-(piperidin-1-yl)benzylideneamino)-1H-pyrazole-4-carboxamide] | 12 ± 0.65 | < 8 | 15 ± 0.2 | < 8 | 15 ± 0.45 | 12 ± 0.74 | < 8 | 14 ± 0.21 | – |
| COc1ccc(Nc2n[nH]c(N=Cc3ccc(N4CCCCC4)cc3)c2C(=O)Nc2ccc(C)cc2)cc1 [8c, 3-(p-Methoxyphenylamino)-5-(4-(piperidin-1-yl)benzylideneamino)-N-p-tolyl-1H-pyrazole-4-carboxamide] | 19 ± 0.65 | < 8 | 14 ± 0.52 | 17 ± 0.78 | 22 ± 0.41 | 25 ± 0.14 | < 8 | 18 ± 0.3 | – |
| C[C@@H]1[C@H](O)[C@@H](C)/C=C/C=C/C=C/C=C/C=C/C=C/C=C/[C@H](O[C@@H]2O[C@H](C)[C@@H](O)[C@H](N)[C@@H]2O)C[C@@H]2O[C@](O)(C[C@@H](O)C[C@@H](O)[C@H](O)CC[C@@H](O)C[C@@H](O)CC(=O)O[C@H]1C)C[C@H](O)[C@H]2C(=O)O [Amphotericin B, reference compound] | – | – | < 8 | – | – | – | – | – | zone of inhibition at 500 µg/mL [1, 20]: 22 ± 0.2 mm; zone of inhibition at 500 µg/mL [2, 21]: 18 ± 0.32 mm; zone of inhibition at 500 µg/mL [4, 22]: < 8 mm; MFC ([9]; read-out: MFC): 34.6 µg/mL (≈ 37.5 µM); MIC ([9]; read-out: MIC): 15.6 µg/mL (≈ 16.9 µM); MFC ([10]; read-out: MFC): 65.6 µg/mL (≈ 71 µM); MIC ([10]; read-out: MIC): 31.2 µg/mL (≈ 33.8 µM); zone of inhibition at 500 µg/mL [5, 23]: < 8 mm; zone of inhibition at 500 µg/mL [6, 24]: < 8 mm; zone of inhibition at 500 µg/mL [7, 25]: < 8 mm; zone of inhibition at 500 µg/mL [8, 26]: < 8 mm |
| COc1cccc2c1C(=O)c1c(O)c3c(c(O)c1C2=O)C[C@@](O)(C(=O)CO)C[C@@H]3O[C@H]1C[C@H](N)[C@H](O)[C@H](C)O1 [Doxorubicin, reference compound] | – | – | – | – | – | – | – | – | IC50 [11]: 1940 ± 800 nM; IC50 [12]: 3920 ± 500 nM |
| CN(C)[C@@H]1C(O)=C(C(N)=O)C(=O)[C@@]2(O)C(O)=C3C(=O)c4c(O)cccc4[C@@](C)(O)[C@H]3C[C@@H]12 [Tetracycline, reference compound] | – | – | – | – | – | – | – | – | zone of inhibition at 500 µg/mL [1, 20]: < 8 mm; zone of inhibition at 500 µg/mL [2, 21]: < 8 mm; zone of inhibition at 500 µg/mL [3]: 21 ± 0.55 mm; zone of inhibition at 500 µg/mL [4, 22]: 25 ± 0.11 mm; zone of inhibition at 500 µg/mL [5, 23]: 25 ± 0.22 mm; zone of inhibition at 500 µg/mL [6, 24]: 22 ± 0.25 mm; zone of inhibition at 500 µg/mL [7, 25]: 20 ± 0.5 mm; zone of inhibition at 500 µg/mL [8, 26]: 23 ± 0.2 mm; MBC [13]: 40.6 µg/mL (≈ 91.4 µM); MBC [14]: 43.8 µg/mL (≈ 98.4 µM); MBC ([15]; read-out: MBC): 87.5 µg/mL (≈ 197 µM); MIC ([15]; read-out: MIC): 62.5 µg/mL (≈ 141 µM); MBC ([16]; read-out: MBC): 93.8 µg/mL (≈ 211 µM); MIC ([16]; read-out: MIC): 62.5 µg/mL (≈ 141 µM); MBC ([17]; read-out: MBC): 87.5 µg/mL (≈ 197 µM); MIC ([17]; read-out: MIC): 62.5 µg/mL (≈ 141 µM); MBC ([18]; read-out: MBC): 18.7 µg/mL (≈ 42.2 µM); MIC ([18]; read-out: MIC): 15.6 µg/mL (≈ 35.1 µM) |
